# Test results from PubChem BioAssay (NCI).
#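 The compound was tested at five concentrations on cells cultured in 96-well plates, with a 48-hour exposure period. GI50 is the concentration that inhibits growth by half. TGI denotes the concentration required for complete inhibition of growth.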
# Assays:
# Assay in all cases: DTP human tumour cell line panel, 48 h
# KM12 colon = test system: KM12 colon
# MDA-N = test system: MDA-N
# UO-31 renal = test system: UO-31 renal
# MCF7 breast = test system: MCF7 breast
# UACC-62 melanoma = test system: UACC-62 melanoma
# HS 578T breast = test system: HS 578T breast
# U251 CNS = test system: U251 CNS
# HCT-116 colon = test system: HCT-116 colon
# BT-549 breast = test system: BT-549 breast
# SNB-19 CNS = test system: SNB-19 CNS
# K-562 leukemia = test system: K-562 leukemia
# SK-OV-3 ovarian = test system: SK-OV-3 ovarian
# SK-MEL-5 melanoma = test system: SK-MEL-5 melanoma
# MDA-MB-231 breast = test system: MDA-MB-231 breast
# SF-268 CNS = test system: SF-268 CNS
# SNB-75 CNS = test system: SNB-75 CNS
# SF-539 CNS = test system: SF-539 CNS
# SF-295 CNS = test system: SF-295 CNS
# M14 melanoma = test system: M14 melanoma
# RPMI-8226 leukemia = test system: RPMI-8226 leukemia
# UACC-257 melanoma = test system: UACC-257 melanoma
# NCI-H522 lung = test system: NCI-H522 lung
# OVCAR-5 ovarian = test system: OVCAR-5 ovarian
# HL-60(TB) leukemia = test system: HL-60(TB) leukemia
# HOP-62 NSCLC = test system: HOP-62 NSCLC
# PC-3 prostate = test system: PC-3 prostate
# IGROV1 ovarian = test system: IGROV1 ovarian
# 786-0 renal = test system: 786-0 renal
# T-47D breast = test system: T-47D breast
# OVCAR-3 ovarian = test system: OVCAR-3 ovarian
# SK-MEL-28 melanoma = test system: SK-MEL-28 melanoma
# EKVX NSCLC = test system: EKVX NSCLC
# OVCAR-8 ovarian = test system: OVCAR-8 ovarian
# HT29 colon = test system: HT29 colon
# HOP-92 NSCLC = test system: HOP-92 NSCLC
# MDA-MB-435 = test system: MDA-MB-435
# SW-620 colon = test system: SW-620 colon
# COLO 205 colon = test system: COLO 205 colon
# MOLT-4 leukemia = test system: MOLT-4 leukemia
# SK-MEL-2 melanoma = test system: SK-MEL-2 melanoma
# A549 NSCLC = test system: A549 NSCLC
# NCI/ADR-RES ovarian = test system: NCI/ADR-RES ovarian
# HCT-15 colon = test system: HCT-15 colon
# CAKI-1 renal = test system: CAKI-1 renal
# NCI-H460 lung = test system: NCI-H460 lung
# RXF 393 renal = test system: RXF 393 renal
# LOX IMVI melanoma = test system: LOX IMVI melanoma
# MALME-3M melanoma = test system: MALME-3M melanoma
# DU-145 prostate = test system: DU-145 prostate
# SN12C renal = test system: SN12C renal
# A498 renal = test system: A498 renal
# OVCAR-4 ovarian = test system: OVCAR-4 ovarian
# ACHN renal = test system: ACHN renal
# SR leukemia = test system: SR leukemia
# CCRF-CEM leukemia = test system: CCRF-CEM leukemia
# NCI-H226 lung = test system: NCI-H226 lung
# TK-10 renal = test system: TK-10 renal
# HCC-2998 colon = test system: HCC-2998 colon
# NCI-H23 lung = test system: NCI-H23 lung
smiles,measurement,setting,value
O=c1[nH]c2cc(Cl)ccc2nc1/C(=N/Nc1ccccc1)C(O)c1ccco1 (centres undefined),TGI,KM12 colon,> 100 µM
same,TGI,MDA-N,> 100 µM
same,TGI,UO-31 renal,> 100 µM
same,TGI,MCF7 breast,> 100 µM
same,TGI,UACC-62 melanoma,> 100 µM
same,TGI,HS 578T breast,> 100 µM
same,TGI,U251 CNS,> 100 µM
same,TGI,HCT-116 colon,> 100 µM
same,TGI,BT-549 breast,> 100 µM
same,TGI,SNB-19 CNS,> 100 µM
same,TGI,K-562 leukemia,> 100 µM
same,TGI,SK-OV-3 ovarian,> 100 µM
same,TGI,SK-MEL-5 melanoma,> 100 µM
same,TGI,MDA-MB-231 breast,> 100 µM
same,TGI,SF-268 CNS,> 100 µM
same,TGI,SNB-75 CNS,> 100 µM
same,TGI,SF-539 CNS,> 100 µM
same,TGI,SF-295 CNS,> 100 µM
same,TGI,M14 melanoma,> 100 µM
same,TGI,RPMI-8226 leukemia,> 100 µM
same,TGI,UACC-257 melanoma,> 100 µM
same,TGI,NCI-H522 lung,> 100 µM
same,TGI,OVCAR-5 ovarian,> 100 µM
same,TGI,HL-60(TB) leukemia,> 100 µM
same,TGI,HOP-62 NSCLC,> 100 µM
same,TGI,PC-3 prostate,> 100 µM
same,TGI,IGROV1 ovarian,> 100 µM
same,TGI,786-0 renal,> 100 µM
same,TGI,T-47D breast,> 100 µM
same,TGI,OVCAR-3 ovarian,> 100 µM
same,TGI,SK-MEL-28 melanoma,> 100 µM
same,TGI,EKVX NSCLC,> 100 µM
same,TGI,OVCAR-8 ovarian,> 100 µM
same,TGI,HT29 colon,> 100 µM
same,TGI,HOP-92 NSCLC,> 100 µM
same,TGI,MDA-MB-435,> 100 µM
same,TGI,SW-620 colon,> 100 µM
same,TGI,COLO 205 colon,> 100 µM
same,TGI,MOLT-4 leukemia,> 100 µM
same,TGI,SK-MEL-2 melanoma,> 100 µM
same,TGI,A549 NSCLC,> 100 µM
same,TGI,NCI/ADR-RES ovarian,> 100 µM
same,TGI,HCT-15 colon,> 100 µM
same,TGI,CAKI-1 renal,> 100 µM
same,TGI,NCI-H460 lung,> 100 µM
same,TGI,RXF 393 renal,> 100 µM
same,TGI,LOX IMVI melanoma,> 100 µM
same,TGI,MALME-3M melanoma,> 100 µM
same,TGI,DU-145 prostate,> 100 µM
same,TGI,SN12C renal,> 100 µM
same,TGI,A498 renal,> 100 µM
same,TGI,OVCAR-4 ovarian,> 100 µM
same,TGI,ACHN renal,> 100 µM
same,TGI,SR leukemia,> 100 µM
same,TGI,CCRF-CEM leukemia,> 100 µM
same,TGI,NCI-H226 lung,> 100 µM
same,TGI,TK-10 renal,> 100 µM
same,TGI,HCC-2998 colon,> 100 µM
same,TGI,NCI-H23 lung,> 100 µM
O=NNc1ccc(S(=O)c2ccccc2)cn1 (centres undefined),TGI,KM12 colon,> 100 µM
same,TGI,MDA-N,> 100 µM
same,TGI,UO-31 renal,> 100 µM
same,TGI,MCF7 breast,> 100 µM
same,TGI,UACC-62 melanoma,> 100 µM
same,TGI,HS 578T breast,> 100 µM
same,TGI,U251 CNS,> 100 µM
same,TGI,HCT-116 colon,> 100 µM
same,TGI,BT-549 breast,> 100 µM
same,TGI,SNB-19 CNS,> 100 µM
same,TGI,K-562 leukemia,> 100 µM
same,TGI,SK-OV-3 ovarian,> 100 µM
same,TGI,SK-MEL-5 melanoma,> 100 µM
same,TGI,MDA-MB-231 breast,> 100 µM
same,TGI,SF-268 CNS,> 100 µM
same,TGI,SNB-75 CNS,> 100 µM
same,TGI,SF-539 CNS,> 100 µM
same,TGI,SF-295 CNS,> 100 µM
same,TGI,M14 melanoma,> 100 µM
same,GI50,RPMI-8226 leukemia,> 100 µM
same,TGI,RPMI-8226 leukemia,> 100 µM
same,TGI,UACC-257 melanoma,> 100 µM
same,TGI,NCI-H522 lung,> 100 µM
same,TGI,OVCAR-5 ovarian,> 100 µM
same,TGI,HL-60(TB) leukemia,> 100 µM
same,TGI,HOP-62 NSCLC,> 100 µM
same,TGI,PC-3 prostate,> 100 µM
same,TGI,IGROV1 ovarian,> 100 µM
same,TGI,786-0 renal,> 100 µM
same,TGI,T-47D breast,> 100 µM
same,TGI,OVCAR-3 ovarian,> 100 µM
same,TGI,SK-MEL-28 melanoma,> 100 µM
same,TGI,EKVX NSCLC,> 100 µM
same,TGI,OVCAR-8 ovarian,> 100 µM
same,TGI,HT29 colon,> 100 µM
same,GI50,HOP-92 NSCLC,12.2 µM
same,TGI,HOP-92 NSCLC,> 100 µM
same,GI50,MDA-MB-435,> 100 µM
same,TGI,MDA-MB-435,> 100 µM
same,TGI,SW-620 colon,> 100 µM
same,TGI,COLO 205 colon,> 100 µM
same,TGI,MOLT-4 leukemia,> 100 µM
same,GI50,SK-MEL-2 melanoma,> 100 µM
same,TGI,SK-MEL-2 melanoma,> 100 µM
same,TGI,A549 NSCLC,> 100 µM
same,TGI,NCI/ADR-RES ovarian,> 100 µM
same,TGI,HCT-15 colon,> 100 µM
same,TGI,CAKI-1 renal,> 100 µM
same,TGI,NCI-H460 lung,> 100 µM
same,TGI,RXF 393 renal,> 93.7 µM
same,GI50,LOX IMVI melanoma,> 100 µM
same,TGI,LOX IMVI melanoma,> 100 µM
same,TGI,MALME-3M melanoma,> 100 µM
same,TGI,DU-145 prostate,> 100 µM
same,TGI,SN12C renal,> 100 µM
same,TGI,A498 renal,> 100 µM
same,TGI,OVCAR-4 ovarian,> 100 µM
same,TGI,ACHN renal,> 100 µM
same,TGI,SR leukemia,> 100 µM
same,TGI,CCRF-CEM leukemia,> 100 µM
same,TGI,NCI-H226 lung,> 100 µM
same,TGI,TK-10 renal,> 100 µM
same,GI50,HCC-2998 colon,> 100 µM
same,TGI,HCC-2998 colon,> 100 µM
same,TGI,NCI-H23 lung,> 100 µM
